Laboratory results: US20240262826A1, “WILD TYPE KIT INHIBITORS” (Blueprint Medicines Corporation, priority 2022, published 2024)

What was measured:
wild type c-kit [1] = target: T1, wild type c-kit (Homo sapiens (Human), UniProt P10721); test: MSD Phospho c-Kit (Tyr721) Assay Whole Cell Lysate Kit in SCF-stimulated M-07e cells (pKIT assay, marked *); type: cell-based; conditions: Meso Scale Discovery (MSD) assay (values marked *)
Protocol: The ability of compounds of the disclosure (described herein as test compounds) to inhibit autophosphorylation of wild type c-kit was measures using either a PathScan phospho c-kit (Tyr719) sandwich ELISA (CST #7298) or a Phospho c-Kit (Tyr721) Assay Whole Cell Lysate Kit (MSD: 515DPD/catalog number K15119D-2).
For the MSD Phospho c-Kit (Tyr721) Assay Whole Cell Lysate Kit: M-07e cells were maintained in Iscove's Modified Dulbecco's Medium (IMDM) media supplemented with 10% FBS, 5 ng/ml granulocyte-macrophage colony-stimulating factor (GM-CSF) and 100 units/mL Penicillin-Streptomycin, and grown in a 37° C., 5% CO2 in a humidified tissue culture incubator. M-07e cells were washed with phenol red-free, serum-free, GM-CSF-free IMDM and seeded in the same media at 100,000 cells well in a volume of 50 ul in a 96-well U-bottom plate. The cells were incubated for 4 hours, followed by the addition of test compound at a final DMSO concentration of 0.25% for 60 min at 37° C. to generate an 8-point dose concentration series of test compounds. The cells were stimulated with 50 ng/ml human SCF for 10 min at room temperature. Cells were then lysed by the addition of 16.5 ul of PerkinElmer 5× AlphaLISA Lysis Buffer supplemented with Cell Signaling Technologies protease/phosphatase inhibitor. Lysis was encouraged by shaking at 4° C. for 30 minutes.
25 ul of lysate was transferred to the MSD plate and the plate was shaken at 700 rpm at room temperature for one hour, followed by washing 3 times with Tris wash buffer. Next, 25 ul of detection antibody solution (diluted from 50× stock in antibody dilution buffer) was added. After shaking at 700 rpm at room temperature for one hour, the plate was washed 3 times with Tris wash buffer. The plate was then read on MSD Sector Imager immediately after 150 ul of reading buffer added to each well.
An IC50 was calculated using a 4-parameter logistic nonlinear regression.

[2] = target: human P-glycoprotein (P-gp, MDR1) (Homo sapiens (Human), UniProt P08183); test: MDCK-MDR1 cell monolayer drug transport assay (P-gp efflux ratio); type: in vitro ADME; conditions: pH 7.4, MDCK-MDR1 cells, 1 uM concentration of compound, read-out: Pgp Efflux Ratio, 1 uM
human P-glycoprotein (P-gp, MDR1), sequence (P08183 whole entry): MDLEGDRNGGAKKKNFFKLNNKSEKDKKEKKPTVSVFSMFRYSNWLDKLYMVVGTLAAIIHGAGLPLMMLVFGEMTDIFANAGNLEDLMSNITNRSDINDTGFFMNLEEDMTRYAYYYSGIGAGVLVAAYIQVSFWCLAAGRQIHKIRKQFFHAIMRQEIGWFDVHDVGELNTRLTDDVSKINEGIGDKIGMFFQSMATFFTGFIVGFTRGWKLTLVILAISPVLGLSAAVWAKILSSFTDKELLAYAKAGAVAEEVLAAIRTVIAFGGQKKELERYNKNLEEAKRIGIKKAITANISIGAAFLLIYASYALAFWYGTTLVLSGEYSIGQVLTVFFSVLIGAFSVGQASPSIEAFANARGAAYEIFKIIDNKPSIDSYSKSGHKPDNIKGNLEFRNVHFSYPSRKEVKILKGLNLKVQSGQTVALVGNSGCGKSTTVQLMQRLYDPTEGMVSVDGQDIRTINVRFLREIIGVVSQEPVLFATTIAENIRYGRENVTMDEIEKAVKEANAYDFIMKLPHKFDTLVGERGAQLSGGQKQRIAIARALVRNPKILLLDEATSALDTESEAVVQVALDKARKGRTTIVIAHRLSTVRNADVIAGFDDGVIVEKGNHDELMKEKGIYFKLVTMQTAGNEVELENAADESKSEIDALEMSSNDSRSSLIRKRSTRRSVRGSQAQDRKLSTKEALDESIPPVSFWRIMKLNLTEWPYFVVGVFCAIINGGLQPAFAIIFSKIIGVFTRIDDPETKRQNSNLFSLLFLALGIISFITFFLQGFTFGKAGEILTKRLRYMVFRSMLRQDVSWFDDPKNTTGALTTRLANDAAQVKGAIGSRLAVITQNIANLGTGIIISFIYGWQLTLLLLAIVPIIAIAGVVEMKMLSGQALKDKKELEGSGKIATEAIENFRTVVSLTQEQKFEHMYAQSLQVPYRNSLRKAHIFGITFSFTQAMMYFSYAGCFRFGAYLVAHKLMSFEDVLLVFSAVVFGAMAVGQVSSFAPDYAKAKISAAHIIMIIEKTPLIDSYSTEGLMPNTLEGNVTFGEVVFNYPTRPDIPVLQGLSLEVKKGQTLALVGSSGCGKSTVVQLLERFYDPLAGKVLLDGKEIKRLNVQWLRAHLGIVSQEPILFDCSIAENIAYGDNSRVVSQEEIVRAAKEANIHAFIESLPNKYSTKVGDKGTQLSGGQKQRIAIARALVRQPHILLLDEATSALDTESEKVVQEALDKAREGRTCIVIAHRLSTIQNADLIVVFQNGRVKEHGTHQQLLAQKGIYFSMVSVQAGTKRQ
Summary of the method: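 P-gp substrate potential tested in MDCK-MDR1 monolayers on Transwell supports, cultured 4-8 days; monolayers with TEER <42 ohms·cm2 discarded. Transport run in HBSS (10 mM HEPES, pH 7.4) at 37° C with compound working solution at 1 μM.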

wild type c-kit [3] = target: T1, wild type c-kit; test: PathScan phospho c-kit (Tyr719) sandwich ELISA in SCF-stimulated M-07e cells (pKIT assay); type: cell-based; conditions: ELISA assay (values not marked *)
Summary of the method: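 Serum- and GM-CSF-starved M-07e cells (4 h) pretreated 60 min at 37 °C with an 8-point compound series in duplicate (0.25% DMSO), then stimulated with human SCF (500 ng/mL stock) 10 min at room temperature. Lysate c-kit Tyr719 phosphorylation quantified by sandwich ELISA with TMB read-out; IC50 from 4-parameter logistic fit.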

T1 sequence (P10721 26-976): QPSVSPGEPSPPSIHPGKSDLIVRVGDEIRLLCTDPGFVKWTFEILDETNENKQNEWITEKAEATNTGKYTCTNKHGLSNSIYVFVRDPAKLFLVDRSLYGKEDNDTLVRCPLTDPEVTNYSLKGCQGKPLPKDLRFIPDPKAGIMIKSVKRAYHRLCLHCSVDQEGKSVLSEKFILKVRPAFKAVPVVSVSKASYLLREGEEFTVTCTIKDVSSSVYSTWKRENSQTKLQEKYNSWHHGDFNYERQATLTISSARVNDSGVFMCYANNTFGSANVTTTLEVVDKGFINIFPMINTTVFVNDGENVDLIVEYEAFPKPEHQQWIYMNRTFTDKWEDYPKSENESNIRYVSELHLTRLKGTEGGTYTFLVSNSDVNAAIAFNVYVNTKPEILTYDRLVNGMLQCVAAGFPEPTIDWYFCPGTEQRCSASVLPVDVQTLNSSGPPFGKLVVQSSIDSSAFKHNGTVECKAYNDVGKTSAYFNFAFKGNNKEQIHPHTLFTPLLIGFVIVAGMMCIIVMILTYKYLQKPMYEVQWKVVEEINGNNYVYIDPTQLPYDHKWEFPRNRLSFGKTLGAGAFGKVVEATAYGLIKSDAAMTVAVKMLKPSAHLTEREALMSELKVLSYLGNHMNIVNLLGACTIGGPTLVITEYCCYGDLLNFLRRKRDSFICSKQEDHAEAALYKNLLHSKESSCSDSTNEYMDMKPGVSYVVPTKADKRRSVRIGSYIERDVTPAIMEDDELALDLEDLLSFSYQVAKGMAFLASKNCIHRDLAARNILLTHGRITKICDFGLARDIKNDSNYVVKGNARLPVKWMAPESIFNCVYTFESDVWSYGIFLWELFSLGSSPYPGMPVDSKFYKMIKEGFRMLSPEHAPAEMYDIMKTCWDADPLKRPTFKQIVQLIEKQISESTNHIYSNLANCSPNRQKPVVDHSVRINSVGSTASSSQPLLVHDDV

Row | Compound | IC50 (wild type c-kit [1]) [nM] | efflux ratio at 2 h, 1 µM [2] | IC50 (wild type c-kit [3]) [nM]
1 | Cc1ccc(-c2nnn(C3CC4(C3)CC4(F)F)n2)cc1NC(=O)c1cnn2ccccc12 (single isomer, unassigned) [Example 42, N-(5-(2-((3r,5r)-1,1-difluorospiro [2.3]hexan-5-yl)-2H-tetrazol-5-yl)-2-methylphenyl)pyrazolo[1,5-a]pyridine-3-carboxamide or N-(5-(2-((3s,5s)-1,1-difluorospiro[2.3]hexan-5-yl)-2H-tetrazol-5-yl)-2-methylphenyl)pyrazolo[1,5-a]pyridine-3-carboxamide] | 3.8 | – | –
2 | COC[C@@H](O)Cn1ncc(-c2ccn3ncc(C(=O)Nc4cc(-c5nnn(C6CC6)n5)ccc4Cl)c3c2)c1C [Example 248, (S)-N-(2-chloro-5-(2-cyclopropyl-2H-tetrazol-5-yl)phenyl)-5-(1-(2-hydroxy-3-methoxypropyl)-5-methyl-1H-pyrazol-4-yl)pyrazolo[1,5-a]pyridine-3-carboxamide] | – | 3.5 | 0.6
3 | Cc1ccc(-c2nnn(C)n2)cc1NC(=O)c1cnn2ccc(-c3cnn(CCO)c3)cc12 [Example 47, 5-(1-(2-hydroxyethyl)-1H-pyrazol-4-yl)-N-(2-methyl-5-(2-methyl-2H-tetrazol-5-yl)phenyl)pyrazolo[1,5-a]pyridine-3-carboxamide] | – | 16 | 9.8
4 | Cc1cc(F)c(-c2nnn(C3CC3)n2)cc1NC(=O)c1cnn2ccc(-c3cnn(CC(C)(C)O)c3C)cc12 [Example 240, N-(5-(2-cyclopropyl-2H-tetrazol-5-yl)-4-fluoro-2-methylphenyl)-5-(1-(2-hydroxy-2-methylpropyl)-5-methyl-1H-pyrazol-4-yl)pyrazolo[1,5-a]pyridine-3-carboxamide] | – | 7.4 | 0.6
5 | Cc1ccc(-c2nnn(C)n2)cc1NC(=O)c1cnn2ccc(-c3cnn(C[C@H](C)O)c3)cc12 (single isomer, unassigned) [Example 54, (S)-5-(1-(2-hydroxypropyl)-1H-pyrazol-4-yl)-N-(2-methyl-5-(2-methyl-2H-tetrazol-5-yl)phenyl)pyrazolo[1,5-a]pyridine-3-carboxamide or (R)-5-(1-(2-hydroxypropyl)-1H-pyrazol-4-yl)-N-(2-methyl-5-(2-methyl-2H-tetrazol-5-yl)phenyl)pyrazolo[1,5-a]pyridine-3-carboxamide] | – | 8.4 | 1.4
6 | COCCNc1ccn2ncc(C(=O)Nc3cc(-n4ncc(C5CN(C(=O)OC)C5)n4)ccc3C)c2c1 [Example 110, methyl 3-(2-(3-(5-((2-methoxyethyl)amino)pyrazolo[1,5-a]pyridine-3-carboxamido)-4-methylphenyl)-2H-1,2,3-triazol-4-yl)azetidine-1-carboxylate] | – | 8.7 | 17.7
7 | COC(=O)N1CC(n2nnc(-c3ccc(C)c(NC(=O)c4cnn5ccc(N6CCN(C)CC6)cc45)c3)n2)C1 [Example 66, methyl 3-(5-(4-methyl-3-(5-(4-methylpiperazin-1-yl)pyrazolo[1,5-a]pyridine-3-carboxamido)phenyl)-2H-tetrazol-2-yl)azetidine-1-carboxylate] | – | 13.5 | 64.9
8 | COC(=O)N1CC(c2cnn(-c3ccc(C)c(NC(=O)c4cnn5ccc(N(C)CCO)cc45)c3)n2)C1 [Example 84, methyl 3-(2-(3-(5-((2-hydroxyethyl)(methyl)amino)pyrazolo[1,5-a]pyridine-3-carboxamido)-4-methylphenyl)-2H-1,2,3-triazol-4-yl)azetidine-1-carboxylate] | – | 51.9 | 21.9
9 | Cc1ccc(-c2nnn([C@H]3C[C@@H](C(F)(F)F)C3)n2)cc1NC(=O)c1cnn2ccc(N3CC(C)(O)C3)cc12 [Example 107, 5-(3-hydroxy-3-methylazetidin-1-yl)-N-(2-methyl-5-(2-((1s,3s)-3-(trifluoromethyl)cyclobutyl)-2H-tetrazol-5-yl)phenyl)pyrazolo[1,5-a]pyridine-3-carboxamide] | – | 28.9 | 5.5
10 | O=C(Nc1cc(-n2nnc([C@H]3C[C@@H]3F)n2)ccc1Cl)c1cnn2ccc(-c3cnn(CC4(O)CCOCC4)c3)cc12 (single isomer, unassigned) [Example 271, N-(2-chloro-5-(5-((1R,2S)-2-fluorocyclopropyl)-2H-tetrazol-2-yl)phenyl)-5-(1-((4-hydroxytetrahydro-2H-pyran-4-yl)methyl)-1H-pyrazol-4-yl)pyrazolo[1,5-a]pyridine-3-carboxamide or N-(2-chloro-5-(5-((1S,2R)-2-fluorocyclopropyl)-2H-tetrazol-2-yl)phenyl)-5-(1-((4-hydroxytetrahydro-2H-pyran-4-yl)methyl)-1H-pyrazol-4-yl)pyrazolo[1,5-a]pyridine-3-carboxamide] | – | 2.2 | 0.3
11 | COC[C@@H]1CCN1c1ccn2ncc(C(=O)Nc3cc(-c4nnn(C5CN(C(=O)OC)C5)n4)ccc3C)c2c1 (stereo in doubt) [Example 85, methyl (S)-3-(5-(3-(5-(2-(methoxymethyl)azetidin-1-yl)pyrazolo[1,5-a]pyridine-3-carboxamido)-4-methylphenyl)-2H-tetrazol-2-yl)azetidine-1-carboxylate or methyl (R)-3-(5-(3-(5-(2-(methoxymethyl)azetidin-1-yl)pyrazolo[1,5-a]pyridine-3-carboxamido)-4-methylphenyl)-2H-tetrazol-2-yl)azetidine-1-carboxylate] | – | 7.1 | 25
12 | Cc1cc(F)c(-c2nnn([C@H]3C[C@@H](C(F)(F)F)C3)n2)cc1NC(=O)c1cnn2ccc(N3CC(C)(O)C3)cc12 [Example 64, N-(4-fluoro-2-methyl-5-(2-((1s,3s)-3-(trifluoromethyl)cyclobutyl)-2H-tetrazol-5-yl)phenyl)-5-(3-hydroxy-3-methylazetidin-1-yl)pyrazolo[1,5-a]pyridine-3-carboxamide] | – | 39.3 | 3.7
13 | Cc1ccc(-c2nnn(C3CC3)n2)cc1NC(=O)c1cnn2ccc(-c3cnn(CC4(O)CCOCC4)c3)cc12 [Example 206, N-(5-(2-cyclopropyl-2H-tetrazol-5-yl)-2-methylphenyl)-5-(1-((4-hydroxytetrahydro-2H-pyran-4-yl)methyl)-1H-pyrazol-4-yl)pyrazolo[1,5-a]pyridine-3-carboxamide] | – | 22.6 | 1.2
14 | COC[C@@H](O)Cn1cc(-c2ccn3ncc(C(=O)Nc4cc(-c5nnn(C6CC6)n5)ccc4C)c3c2)c(C2CC2)n1 [Example 243, (S)-5-(3-cyclopropyl-1-(2-hydroxy-3-methoxypropyl)-1H-pyrazol-4-yl)-N-(5-(2-cyclopropyl-2H-tetrazol-5-yl)-2-methylphenyl)pyrazolo[1,5-a]pyridine-3-carboxamide] | – | 13.5 | 0.1
15 | COC(=O)N1CC(n2nnc(-c3ccc(C)c(NC(=O)c4cnn5ccc(N6CCOCC6)cc45)c3)n2)C1 [Example 69, methyl 3-(5-(4-methyl-3-(5-morpholinopyrazolo[1,5-a]pyridine-3-carboxamido)phenyl)-2H-tetrazol-2-yl)azetidine-1-carboxylate] | – | 11.7 | 50.1
16 | COC[C@@H](O)Cn1cc(-c2ccn3ncc(C(=O)Nc4cc(-c5nnn(C6CC6)n5)c(C)cc4Cl)c3c2)cn1 [Example 252, (S)-N-(2-chloro-5-(2-cyclopropyl-2H-tetrazol-5-yl)-4-methylphenyl)-5-(1-(2-hydroxy-3-methoxypropyl)-1H-pyrazol-4-yl)pyrazolo[1,5-a]pyridine-3-carboxamide] | – | 5.1 | 3.7
17 | Cc1ccc(-n2nnc([C@@H]3CC3(F)F)n2)cc1NC(=O)c1cnn2ccc(-c3cnn(CCO)c3)cc12 (single isomer, unassigned) [Example 233, (S)-N-(5-(5-(2,2-difluorocyclopropyl)-2H-tetrazol-2-yl)-2-methylphenyl)-5-(1-(2-hydroxyethyl)-1H-pyrazol-4-yl)pyrazolo[1,5-a]pyridine-3-carboxamide or (R)-N-(5-(5-(2,2-difluorocyclopropyl)-2H-tetrazol-2-yl)-2-methylphenyl)-5-(1-(2-hydroxyethyl)-1H-pyrazol-4-yl)pyrazolo[1,5-a]pyridine-3-carboxamide] | – | 6.3 | 2.2
